# Measured values taken from US20200268762A1, “7-SUBSTITUTED SULFONIMIDOYLPURINONE COMPOUNDS AND DERIVATIVES FOR THE TREATMENT AND PROPHYLAXIS OF LIVER CANCER” (Hoffmann-La Roche Inc., priority 2019, published 2020).
# “Also recorded” adds a separate entry of the source.
# Key:
# [1] = system: Hep55.1c tumor bearing mice; test: Transplanted Hep55.1c mouse model of hepatocellular carcinoma, tumor volume by μCT; assay type: in vivo, C57BL/6N mice; details: Hep55.1c intrahepatic tumors; 41-A 10 mg/kg weekly oral; anti-CD40 4 mg/kg single dose; vs vehicle
# Method: Female C57BL/6N mice (Jackson Laboratories) were injected intra hepatically with 5×10^5 Hep55.1c tumor cell line together with Matrigel (Matrigel Basement Membrane Matrix, Corning Cat #354234) in a total volume of […] (10 μl cell suspension plus 10 μl Martigel). Tumor volume was monitored weekly using μCT (TomoScope Synergy Twin, CT Imaging GmbH) upon a single intravenous administration of contrasting agent Exitron 6000 (Viscovert). Imaging data were reconstructed by TomoScope software and analyzed using Osirix software. […] To compare to another agonistic, immune stimulating agent, a single dose of anti-CD40 antibody (4 mg/kg; clone FGK.45, BioXCell) was given. Data depicted are means±SEM for a minimum of n=9 animals per group.
# [2] = system: iAST mouse model of hepatocellular carcinoma; test: iAST mouse model of hepatocellular carcinoma, tumor burden; details: iAST mice, day 12 after treatment start; 41-A 10 mg/kg once a week oral, Sorafenib 90 mg/kg daily
# Method: Per group n=10 were analyzed by One-way ANOVA and Tukey correction shown as individual dots with means±SEM using GraphPad Prism software version 6.
# [3] = system: PD-L1 expression on tumor cells; test: PD-L1 expression on tumor cells of iAST mice by flow cytometry; assay type: in vivo, mouse; details: day 12 after treatment start
# Method: Tumors from iAST mice were treated as described in FIG. 1. […] For flow cytometry, tumors were excised and single cell suspensions obtained by mechanical processing and enzymatic digestion (DNAse 0.01%, Collagenase IV 1 mg/ml). Staining procedures started with Fc receptor blocking using 2.4G2 antibody clone (1:200 dilution, BD Bioscience), and the following antibodies (clones) were used to analyzed leukocyte infiltrate: CD45-FITC (30-F11, BioLegend) and CD11b-BUV737 (M1/70, BD Bioscience). Samples were acquired using a LSR Fortessa machine (BD Bioscience) and analyzed by FlowJo version 10 (Treestar).
# [4] = system: Hep55.1c mouse model of hepatocellular carcinoma; test: Hep55.1c tumor fragment transplantation model, survival; assay type: in vivo, C57BL/6N mice; details: alive on day 94 after tumor fragment transplantation; 41-A weekly oral, anti-PD-1 250 μg i.p. 8 doses
# Method: Female C57BL/6N mice (Jackson Laboratories) were injected intra hepatically with 5×10^5 Hep55.1c tumor cell line together with Matrigel (Matrigel Basement Membrane Matrix, Corning Cat #354234) in a total volume of 20 μl (10 μl cell suspension plus 10 μl Martigel). After 3 weeks, animals were sacrificed and tumors excised from the liver. Excised tumors were cut into 1×1 mm^3 pieces and implanted into the liver of female C57BL/6N mice. Scout animals were sacrificed to determine the time point of treatment start at about 80 mm^3 tumor volume. […] 41-A was given weekly, while anti-PD-1 antibody treatment started one day after 41-A treatment and was continued every three to four days for 8 doses in total. Treatment with both agents was stopped after the last anti-PD-1 administration.
smiles,measurement,setting,value
"CCCN(C)C(=O)n1c(=O)n(Cc2ccc(Cl)cc2)c2nc([S@](=N)(=O)CC)nc(N)c21 [Example 41-A, 6-Amino-9-[(4-chlorophenyl)methyl]-2-[S(R)-ethylsulfonimidoyl]-N-methyl-8-oxo-N-propyl-purine-7-carboxamide]",tumor growth (tumor volume),[1],tumor stasis; also recorded: inhibition of tumor growth
same,Examination of the liver for superficial tumor nodules (tumor nodule free),[2],0/10 tumor nodule free
same,PD-L1 expression on tumor cells,[3],induced PD-L1 expression on tumor cells
same,PD-L1 expression on tumor cells,[3]; listed as compound 41-A,induces PD-L1 expression on tumor cells
same,survival of mice,[4],5/10
